Measurements: patent publication US11813306B2, “Cyclic tetramer compounds as proprotein convertase subtilisin/kexin type 9 (PCSK9) inhibitors for the treatment of metabolic disorders” (NOVARTIS AG, priority 2018, dated 2023)

Target: human PCSK9 (Homo sapiens, UniProt Q8NBP7)
Test: PCSK9 ligand binding assay (TR-FRET): interference with binding of human PCSK9 to human LDLR
Settings: for IC50: Human PCSK9 Alexa Fluor 647 / Human LDLR extracellular domain-Europium Kryptate; for Max % inhibition: efficacy (Amax), 100% = 1 uM unlabeled human PCSK9, 0% = DMSO
In short: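 Read-out was TR-FRET ratio (665 nm over 615 nm, 330 nm excitation) between Alexa Fluor 647-human PCSK9 (16 nM added) and Europium Kryptate-human LDLR ectodomain (4 nM added). Compound and PCSK9 were mixed 30 min before LDLR, then incubated 2 h. Inhibition was normalised to DMSO and unlabelled-PCSK9 controls, giving IC50 and Amax.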

Chain of human PCSK9 (Q8NBP7 153-692): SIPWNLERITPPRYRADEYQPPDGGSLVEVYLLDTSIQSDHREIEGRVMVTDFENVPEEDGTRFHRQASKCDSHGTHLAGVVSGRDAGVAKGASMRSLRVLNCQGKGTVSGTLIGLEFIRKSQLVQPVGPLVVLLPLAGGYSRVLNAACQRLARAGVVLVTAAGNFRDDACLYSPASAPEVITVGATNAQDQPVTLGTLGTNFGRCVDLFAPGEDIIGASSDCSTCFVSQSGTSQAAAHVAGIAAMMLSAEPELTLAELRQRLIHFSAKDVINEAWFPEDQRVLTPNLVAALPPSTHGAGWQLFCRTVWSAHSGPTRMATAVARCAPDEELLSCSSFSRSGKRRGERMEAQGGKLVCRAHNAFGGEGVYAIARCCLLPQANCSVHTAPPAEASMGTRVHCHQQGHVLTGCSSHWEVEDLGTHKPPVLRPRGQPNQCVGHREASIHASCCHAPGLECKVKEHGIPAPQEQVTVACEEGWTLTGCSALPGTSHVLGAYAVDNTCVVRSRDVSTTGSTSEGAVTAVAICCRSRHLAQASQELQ
Chain of human PCSK9 (Q8NBP7 31-152 partner limits assumed): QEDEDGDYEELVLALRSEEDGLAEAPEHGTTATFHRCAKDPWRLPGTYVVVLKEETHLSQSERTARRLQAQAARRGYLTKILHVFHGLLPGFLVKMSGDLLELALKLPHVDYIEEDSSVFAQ

Row | SMILES | IC50 [nM] | Max % inhibition [%]
1 | COC[C@@H]1NC(=O)[C@H](C)N(Cc2ccc(Cl)cc2Oc2ccc(-c3cnc(CN4CCC4)n3C)cc2)C(=O)C[C@@H](CC(F)(F)F)C(=O)N2CCC[C@@](Cc3ccc(Cl)cc3)(C2)NC1=O [Compound 33, (3S,7S,10S,13R)-6-(2-(4-(2-(Azetidin-1-ylmethyl)-1-methyl-1H-imidazol-5-yl)phenoxy)-4-chlorobenzyl)-13-(4-chlorobenzyl)-10-(methoxymethyl)-7-methyl-3-(2,2,2-trifluoroethyl)-1,6,9,12-tetraazabicyclo[11.3.1]heptadecane-2,5,8,11-tetraone] | 1.05 | 113.0
2 | C[C@H]1C(=O)N[C@@H](CO)C(=O)N(C)[C@@]2(Cc3ccc(Cl)cc3)CCCN(C2)C(=O)[C@H](Cc2ccccn2)CC(=O)N1Cc1ccc(Cl)cc1Oc1ccc(-c2cnc(CN(C)C)n2C)cc1 [Compound 18, (3R,7S,10S,13R)-6-(4-Chloro-2-(4-(2-((dimethylamino)methyl)-1-methyl-1H-imidazol-5-yl)phenoxy)benzyl)-13-(4-chlorobenzyl)-10-(hydroxymethyl)-7,12-dimethyl-3-(pyridin-2-ylmethyl)-1,6,9,12-tetraazabicyclo[11.3.1]heptadecane-2,5,8,11-tetraone] | 0.549 | 104.5
3 | Cc1cccc(C[C@@H]2CC(=O)N(Cc3c(F)cc(Cl)cc3Oc3ccc(-c4cnc(CN(C)C)n4C)cc3)[C@@H](C)C(=O)N[C@@H](CO)C(=O)N(C)[C@@]3(Cc4ccc(Cl)cc4)CCCN(C3)C2=O)n1 [Compound 170, (3R,7S,10S,13R)-6-(4-chloro-2-(4-(2-((dimethylamino)methyl)-1-methyl-1H-imidazol-5-yl)phenoxy)-6-fluorobenzyl)-13-(4-chlorobenzyl)-10-(hydroxymethyl)-7,12-dimethyl-3-((6-methylpyridin-2-yl)methyl)-1,6,9,12-tetraazabicyclo[11.3.1]heptadecane-2,5,8,11-tetraone] | 0.73 | 115.0
4 | CCc1ccc(CN2C(=O)C[C@@H]([C@@H]3CCc4ccccc43)C(=O)N(C)C[C@H](Cc3ccc(Cl)cc3)N(C)C(=O)[C@H](CO)NC(=O)[C@@H]2C)c(Oc2ccc(-c3cnc(CN(C)C)n3C)cc2)c1 [Compound 118, (2S, 5S, 8S, 12S)-8-(4-chlorobenzyl)-12-((S)-2,3-dihydro-1H-inden-1-yl)-1-(2-(4-(2-((dimethylamino)methyl)-1-methyl-1H-imidazol-5-yl)phenoxy)-4-ethylbenzyl)-5-(hydroxymethyl)-2,7,10-trimethyl-1,4,7,10-tetraazacyclotetradecane-3,6,11,14-tetraone] | 59.6 | 95.2
5 | C[C@H]1C(=O)N[C@@H](CO)C(=O)N[C@@]2(Cc3ccc(Cl)cc3)CCCN(C2)C(=O)[C@H](Cc2ccc(F)c(F)c2F)CC(=O)N1Cc1c(F)cc(Cl)cc1Oc1ccc(-c2cnc(CN(C)C)n2C)cc1 [Compound 48, (3R, 7S, 10S, 13R)-6-(4-chloro-2-(4-(2-((dimethylamino)methyl)-1-methyl-1H-imidazol-5-yl)phenoxy)-6-fluorobenzyl)-13-(4-chlorobenzyl)-10-(hydroxymethyl)-7-methyl-3-(2,3,4-trifluorobenzyl)-1,6,9,12-tetraazabicyclo[11.3.1]heptadecane-2,5,8,11-tetraone] | 0.596 | 102.8
6 | C[C@H]1C(=O)N[C@@H](CO)C(=O)N(C)[C@@]2(Cc3ccc(Cl)cc3)CCCN(C2)C(=O)[C@H](Cc2c(F)cc(F)cc2F)CC(=O)N1Cc1ccc(Cl)cc1Oc1ccc(-c2cnc(CN(C)C)n2C)cc1 [Compound 37, (3R, 7S, 10S, 13R)-6-(4-chloro-2-(4-(2-((dimethylamino)methyl)-1-methyl-1H-imidazol-5-yl)phenoxy)benzyl)-13-(4-chlorobenzyl)-10-(hydroxymethyl)-7,12-dimethyl-3-(2,4,6-trifluorobenzyl)-1,6,9,12-tetraazabicyclo[11.3.1]heptadecane-2,5,8,11-tetraone] | 0.445 | 112.0
7 | C[C@H]1C[C@H]([C@@H]2CC(=O)N(Cc3ccc(Cl)cc3Oc3ccc(-c4cnc(CN(C)C)n4C)cc3)[C@@H](C)C(=O)N[C@@H](CO)C(=O)N(C)[C@H](Cc3ccc(Cl)cc3)CN(C)C2=O)c2ccccc21.Cl [Compound 81, (2S, 5S, 8R, 12S)-1-(4-chloro-2-(4-(2-((dimethylamino)methyl)-1-methyl-1H-imidazol-5-yl)phenoxy)benzyl)-8-(4-chlorobenzyl)-5-(hydroxymethyl)-2,7,10-trimethyl-12-((1R,3S)-3-methyl-2,3-dihydro-1H-inden-1-yl)-1,4,7,10-tetraazacyclotetradecane-3,6,11,14-tetraone] | 0.95 | 105.6
8 | C[C@H](O)[C@@H]1NC(=O)[C@H](C)N(Cc2ccc(Cl)cc2Oc2ccc(-c3cnc(CN(C)C)n3C)cc2)C(=O)C[C@@H](CC(F)(F)F)C(=O)N2CCC[C@@](Cc3ccc(Cl)cc3)(C2)NC1=O [Compound 64, (3S,7S,10S,13R)-6-(4-chloro-2-(4-(2-((dimethylamino)methyl)-1-methyl-1H-imidazol-5-yl)phenoxy)benzyl)-13-(4-chlorobenzyl)-10-((S)-1-hydroxyethyl)-7-methyl-3-(2,2,2-trifluoroethyl)-1,6,9,12-tetraazabicyclo[11.3.1]heptadecane-2,5,8,11-tetraone] | 1.16 | 99.7
9 | COC[C@@H]1NC(=O)[C@H](CCC(=O)N2CCC2)N(Cc2ccc(Cl)cc2Oc2ccc(-c3cnc(CN4CCCC4)n3C)cc2)C(=O)C[C@@H]([C@H]2CC(C)(C)c3ccccc32)C(=O)N(C)C[C@@H](Cc2ccc(Cl)cc2)N(C)C1=O.Cl [Compound 132, (2S,5S,8R,12S)-2-(3-(azetidin-1-yl)-3-oxopropyl)-1-(4-chloro-2-(4-(1-methyl-2-(pyrrolidin-1-ylmethyl)-1H-imidazol-5-yl)phenoxy)benzyl)-8-(4-chlorobenzyl)-12-((R)-3,3-dimethyl-2,3-dihydro-1H-inden-1-yl)-5-(methoxymethyl)-7,10-dimethyl-1,4,7,10-tetraazacyclotetradecane-3,6,11,14-tetraone hydrochloride] | 231 | 100.3
10 | COC[C@@H]1NC(=O)[C@H](C)N(Cc2ccc(Cl)cc2Oc2ccc(-c3cnc(CN4CCCC4)n3C)cc2)C(=O)C[C@@H](Cc2ccccc2)C(=O)N(C)C[C@@H](Cc2ccc(Cl)cc2)N(C)C1=O.Cl [Compound 114, (2S, 5S, 8R, 12R)-12-benzyl-1-(4-chloro-2-(4-(1-methyl-2-(pyrrolidin-1-ylmethyl)-1H-imidazol-5-yl)phenoxy)benzyl)-8-(4-chlorobenzyl)-5-(methoxymethyl)-2,7,10-trimethyl-1,4,7,10-tetraazacyclotetradecane-3,6,11,14-tetraone] | 21.4 | 95.9
11 | C[C@H](NCc1ccc(Cl)cc1Oc1ccc(-c2cnc(CN(C)C)n2C)cc1)C(=O)N[C@H]1COC(=O)C[C@@H](Cc2ccccc2)C(=O)N(C)[C@@]2(Cc3ccc(Cl)cc3)CCCN(C2)C1=O [Compound 130, (2S)-N-((3S, 8R, 11R)-8-benzyl-11-(4-chlorobenzyl)-10-methyl-2,6,9-trioxo-5-oxa-1,10-diazabicyclo[9.3.1]pentadecan-3-yl)-2-((4-chloro-2-(4-(2-((dimethylamino)methyl)-1-methyl-1H-imidazol-5-yl)phenoxy)benzyl)amino)propanamide] | 879 | 99.3
12 | C[C@H]1C(=O)N[C@@H](CO)C(=O)N[C@@]2(Cc3ccc(Cl)cc3)CCCN(C2)C(=O)[C@H](CC2CC2)CC(=O)N1Cc1ccc(Cl)cc1Oc1ccc(-c2cnc(CNC(C)(C)C)n2C)cc1 [Compound 148, (3R, 7S, 10S, 13R)-6-(2-(4-(2-((tert-butylamino)methyl)-1-methyl-1H-imidazol-5-yl)phenoxy)-4-chlorobenzyl)-13-(4-chlorobenzyl)-3-(cyclopropylmethyl)-10-(hydroxymethyl)-7-methyl-1,6,9,12-tetraazabicyclo[11.3.1]heptadecane-2,5,8,11-tetraone] | 1.09 | 111.9
13 | C[C@H]1C(=O)N[C@@H](CO)C(=O)N[C@@]2(Cc3ccc(Cl)cc3)CCCN(C2)C(=O)[C@H](Cc2ccccn2)CC(=O)N1Cc1ccc(Cl)cc1Oc1ccc(-c2cnc(CN3CCCC3)n2C)cc1 [Compound 1, (3R,7S,10S,13R)-6-(4-Chloro-2-(4-(1-methyl-2-(pyrrolidin-1-ylmethyl)-1H-imidazol-5-yl)phenoxy)benzyl)-13-(4-chlorobenzyl)-10-(hydroxymethyl)-7-methyl-3-(pyridin-2-ylmethyl)-1,6,9,12-tetraazabicyclo[11.3.1]heptadecane-2,5,8,11-tetraone] | 0.562 | 103.2
14 | COC[C@H]1NC(=O)[C@H](C)N(Cc2ccc(Cl)cc2Oc2ccc(-c3cnc(CN(C)C)n3C)nc2)C(=O)C[C@@H](Cc2ccccc2)C(=O)N2CCC[C@@](Cc3ccc(Cl)cc3)(C2)NC1=O [Compound 122, (3R, 7S, 10R, 13R)-3-benzyl-6-(4-chloro-2-((6-(2-((dimethylamino)methyl)-1-methyl-1H-imidazol-5-yl)pyridin-3-yl)oxy)benzyl)-13-(4-chlorobenzyl)-10-(methoxymethyl)-7-methyl-1,6,9,12-tetraazabicyclo[11.3.1]heptadecane-2,5,8,11-tetraone] | 94.3 | 96.9
15 | Cc1c(CN(C)C)ncn1-c1ccc(Oc2cc(Cl)ccc2CN2C(=O)C[C@@H]([C@@H]3CCc4ccccc43)C(=O)N3CCC[C@@](Cc4ccc(Cl)cc4)(C3)NC(=O)[C@H](CO)NC(=O)[C@@H]2C)cc1 [Compound 7, (3S, 7S, 10S, 13R)-6-(4-chloro-2-(4-(4-((dimethylamino)methyl)-5-methyl-1H-imidazol-1-yl)phenoxy)benzyl)-13-(4-chlorobenzyl)-3-((S)-2,3-dihydro-1H-inden-1-yl)-10-(hydroxymethyl)-7-methyl-1,6,9,12-tetraazabicyclo[11.3.1]heptadecane-2,5,8,11-tetraone] | 0.401 | 107.3
